How the values were obtained:
[1] = Metabolic (microsomal) stability assay, human liver microsomes (HLM); assay type: in vitro ADME; details: 1 μM test compound, predicted clearance as percent of liver blood flow
Protocol: The metabolic degradation of the test compound is assayed at 37° C. with pooled liver microsomes (mouse (MLM), rat (RLM) or human (HLM)). The final incubation volume of 48 μL per time point contains TRIS buffer (pH 7.5; 0.1 M), magnesium chloride (6.5 mM), microsomal protein (0.5 mg/mL for mouse/rat, 1 mg/mL for human specimens) and the test compound at a final concentration of 1 μM. Following a short preincubation period at 37° C., the reactions are initiated by addition of 12 μL beta-nicotinamide adenine dinucleotide phosphate, reduced form (NADPH, 10 mM) and terminated by transferring an aliquot into solvent after different time points (0, 5, 15, 30, 60 min). Additionally, the NADPH-independent degradation is monitored in incubations without NADPH, terminated at the last time point by addition of acetonitrile. The quenched incubations are pelleted by centrifugation (4,000 rpm, 15 min). An aliquot of the supernatant is assayed by LC-MS/MS to quantify the concentration of parent compound in the individual samples.
In vitro intrinsic clearance (CLint,in vitro) is calculated from the time course of the disappearance of the test drug during the microsomal incubation. Each plot is fitted to the first-order elimination rate constant as C(t)=C0*exp(−ke*t), where C(t) and C0 are the concentration of unchanged test drug at incubation time t and that at preincubation and ke is the disappearance rate constant of the unchanged drug. Subsequently, CLint, in vitro (μL min^−1·amount protein) values are converted to predicted CLint,in vivo (mL min^−1·kg^−1) from incubation parameters according to the equation CLint, in vivo=CLint, in vitro×(incubation volume (mL)/amount protein (mg))×(amount protein (mg)/g liver tissue)×(liver weight/body wt.).
For better across species comparison the predicted clearance is expressed as percent of the liver blood flow [% QH] (mL min^−1·kg^−1) in the individual species. In general, high stability (corresponding to low % QH) of the compounds across species is desired.

[2] = test system: MKN1 cells; assay: MKN1 CTG proliferation assay (120 h) (gastric cancer, wt amplified); assay type: cell-based; details: Homo sapiens, MKN-1
Protocol: (§1) MKN1 cells (JCRB0252) are dispensed into black 384-well plates, flat and clear bottom (Greiner, PNr. 781091) at a density of 200 cells per well in 60 μl RPMI-1640 ATCC-Formulation (Gibco #A10491)+10% FCS (fetal calf serum, HyClone, SH30084.03). Cells are incubated overnight at 37° C. in a humidified tissue culture incubator at 5% CO2. Compounds (10 mM stock in DMSO) are added at logarithmic dose series using the ECHO acoustic liquid handler system (Beckman Coulter), normalizing for added DMSO and including DMSO controls. All compound treatments are performed in technical duplicates. For the TO time point measurement, untreated cells are analyzed at the time of compound addition. Plates are incubated for 120 h, and cell viability is measured using CellTiter-Glo luminescent cell viability reagent (Promega product code G7570). Viability (stated as percent of control) is defined as relative luminescence units RLU of each well divided by the RLU of cells in DMSO controls. IC50 values are determined from viability measurements by non-linear regression using a four-parameter model.
(§2) IC50 values of representative compounds according to the invention measured with these assays in the indicated cell lines are presented in Table 46.

[3] = test system: LOVO cells; assay: LOVO CTG proliferation assay (120 h) (CRC, G13D); assay type: cell-based; details: Homo sapiens
Protocol: as §1, with “LOVO” for “MKN1”, “(ATCC No. CCL-229)” for “(JCRB0252)”, “1000” for “200”, “DMEM (Sigma D6429)+10%” for “RPMI-1640 ATCC-Formulation (Gibco #A10491)+10%”
as §2

[4] = test system: Ba/F3 cells KRAS G12C; assay: Ba/F3 proliferation assay (KRAS G12C); assay type: cell-based; details: Mus musculus, BaF3, 72 h, AlamarBlue viability
Protocol: (§3) Ba/F3 cells are ordered from DSMZ (ACC300, Lot17) and grown in RPMI-1640 (ATCC 30-2001)+10% FCS+10 ng/mL IL-3 at 37° C. in 5% […] atmosphere. Plasmids containing KRASG12 mutants (i.e. […], G12C, G12V) are obtained from GeneScript. To generate KRASG12-dependent Ba/F3 models, Ba/F3 cells are transduced with retroviruses containing vectors that harbor KRASG12 isoforms. Platinum-E cells (Cell Biolabs) are used for retrovirus packaging. Retrovirus is added to Ba/F3 cells. To ensure infection, 4 μg/mL polybrene is added and cells are spinfected. Infection efficiency is confirmed by measuring GFP-positive cells using a cell analyzer. Cells with an infection efficiency of 10% to 20% are further cultivated and puromycin selection with 1 μg/mL is initiated. As a control, parental Ba/F3 cells are used to show selection status. Selection is considered successful when parental Ba/F3 cells cultures died. To evaluate the transforming potential of KRASG12 mutations, the growth medium is no longer supplemented with IL-3. Ba/F3 cells harboring the empty vector are used as a control. Approximately ten days before conducting the experiments, puromycin is left out.
(§4) For proliferation assays, Ba/F3 cells are seeded into 384-well plates at 1.5×1 (M cells/60 μL in growth media (RPMI-1640+10% FCS). Compounds (10 mM stock in DMSO) are added at logarithmic dose series using the ECHO acoustic liquid handler system (Beckman Coulter), normalizing for added DMSO and including DMSO controls. All compound treatments are performed in technical duplicates. For the TO time point measurement, untreated cells are analyzed at the time of compound addition. Treated cells are incubated for 72 h at 37° C. with 5% CO2 and cell viability is measured in the PerkinElmer Envision Multimode Reader using AlamarBlue™ (ThermoFisher) viability stain. Viability (stated as percent of control) is defined as relative fluorescence units RFU of each well divided by the RFU of cells in DMSO controls. IC50 values are determined from viability measurements by non-linear regression using a four-parameter model.

[5] = test system: Ba/F3 cells KRAS G12V; assay: Ba/F3 proliferation assay (KRAS G12V); assay type: cell-based; details: Mus musculus, BaF3, 72 h, AlamarBlue viability
Protocol: as §3, §4

[6] = test system: Ba/F3 cells KRAS G12D; assay: Ba/F3 proliferation assay (KRAS G12D); assay type: cell-based; details: Mus musculus, BaF3, 72 h, AlamarBlue viability
Protocol: as §3, §4

| HLM QH [1] | IC50 [2] | IC50 [3] | IC50 [4] | IC50 [5] | IC50 [6] | Structure (SMILES) |
| --- | --- | --- | --- | --- | --- | --- |
| 77% | 6 nM | 10 nM | 4 nM | 2 nM | 10 nM | CO[C@H]1CCN(C)[C@@H]1[C@H](C)Oc1nc(-c2onc3c2CCC[C@@]32CCCc3sc(N)c(C#N)c32)nc2c1n(C)c(=O)n2[C@@H]1CCOC1 [I-23] |
| <24% | 355 nM | 235 nM | 59 nM | 26 nM | 134 nM | C[C@H](Oc1nc(-c2onc3c2CCC[C@@]32CCCc3sc(N)c(C#N)c32)nc2c1n(C)c(=O)n2C1COC1)[C@@H]1CCCN1C [I-24] |
| 33% | 48 nM | 55 nM | 12 nM | 7 nM | 25 nM | C[C@H](Oc1nc(-c2onc3c2CCC[C@@]32CCCc3sc(N)c(C#N)c32)nc2c1n(C)c(=O)n2[C@@H]1CCOC1)C12CCCN1CCC2 [I-25] |
| 42% | 24 nM | 11 nM | 3 nM | 2 nM | 5 nM | C[C@H](Oc1nc(-c2onc3c2CCC[C@@]32CCCc3sc(N)c(C#N)c32)nc2c1n(C)c(=O)n2[C@@H]1CCOC1)[C@@H]1CC[C@H](C)N1C [I-26] |
| 58% | 126 nM | 52 nM | 26 nM | 13 nM | 55 nM | C[C@H](Oc1nc(-c2onc3c2CCC[C@@]32CCCc3sc(N)c(C#N)c32)nc2c1n(C)c(=O)n2[C@@H]1CCOC1)[C@@H]1C[C@H](F)CN1C [I-27] |
| 52% | 134 nM | 105 nM | 26 nM | 12 nM | 53 nM | C[C@H](Oc1nc(-c2onc3c2CCC[C@@]32CCCc3sc(N)c(C#N)c32)nc2c1n(C)c(=O)n2[C@@H]1CCOC1)[C@@H]1C[C@@H]2C[C@@H]2N1C [I-28] |

The next lines start with the compound.

| Structure (SMILES) | HLM QH [1] | IC50 [2] | IC50 [3] | IC50 [4] | IC50 [5] | IC50 [6] |
| --- | --- | --- | --- | --- | --- | --- |
| C[C@H](Oc1nc(-c2onc3c2CCC[C@@]32CCCc3sc(N)c(C#N)c32)nc2c1n(C)c(=O)n2C1CCOCC1)[C@@H]1CCCN1C [I-10] | 33% | 109 nM | 53 nM | 43 nM | 16 nM | 118 nM |
| C[C@H](Oc1nc(-c2onc3c2CCC[C@@]32CCCc3sc(N)c(C#N)c32)nc2c1n(C)c(=O)n2[C@@H]1CCCOC1)[C@@H]1CCCN1C [I-12] | <24% | 10 nM | 19 nM | 4 nM | 2 nM | 12 nM |
| C[C@H](Oc1nc(-c2onc3c2CCC[C@@]32CCCc3sc(N)c(C#N)c32)nc2c1[nH]c(=O)n2[C@@H]1CCCOC1)[C@@H]1CCCN1C [I-13] | <24% | 11 nM | 39 nM | 38 nM | 16 nM | 141 nM |
| CO[C@@H]1C[C@@H]([C@H](C)Oc2nc(-c3onc4c3CCC[C@@]43CCCc4sc(N)c(C#N)c43)nc3c2n(C)c(=O)n3[C@@H]2CCCOC2)N(C)C1 [I-14] | 27% | 48 nM | 6 nM | 5 nM | 2 nM | 10 nM |
| C[C@H](Oc1nc(-c2onc3c2CCC[C@@]32CCCc3sc(N)c(C#N)c32)nc2c1n(C)c(=O)n2C12COC(C1)C2)[C@@H]1CCCN1C [I-15] | <24% | 47 nM | 7 nM | 16 nM | 11 nM | 51 nM |
| CO[C@H]1C[C@H](n2c(=O)n(C)c3c(O[C@@H](C)[C@@H]4CCCN4C)nc(-c4onc5c4CCC[C@@]54CCCc5sc(N)c(C#N)c54)nc32)C1 [I-16] | <24% | 353 nM | 404 nM | 288 nM | 226 nM | 488 nM |
| C[C@H](Oc1nc(-c2onc3c2CCC[C@@]32CCCc3sc(N)c(C#N)c32)nc2c1n(C)c(=O)n2[C@H]1CC2CCC1O2)[C@@H]1CCCN1C (stereo partly drawn) [I-17] | <24% | 325 nM | 14 nM | 37 nM | 20 nM | 47 nM |
| C[C@H](Oc1nc(-c2onc3c2CCC[C@@]32CCCc3sc(N)c(C#N)c32)nc2c1n(C)c(=O)n2[C@@H]1CC2CCC1O2)[C@@H]1CCCN1C (stereo partly drawn) [I-18] | 31% | 457 nM | 49 nM | 109 nM | 69 nM | 182 nM |
| C[C@H](Oc1nc(-c2onc3c2CCC[C@@]32CCCc3sc(N)c(C#N)c32)nc2c1n(C)c(=O)n2[C@H]1CCC[C@@H]1O)[C@@H]1CCCN1C [I-19] | <24% | 1040 nM | 60 nM | 406 nM | 243 nM | 470 nM |
| C[C@H](Oc1nc(-c2onc3c2CCC[C@@]32CCCc3sc(N)c(C#N)c32)nc2c1n(C)c(=O)n2[C@@H]1CCOC1)[C@@H]1CCCN1C [I-20] | 26% | 8 nM | 6 nM | 4 nM | 2 nM | 9 nM |
| CCn1c(=O)n([C@@H]2CCOC2)c2nc(-c3onc4c3CCC[C@@]43CCCc4sc(N)c(C#N)c43)nc(O[C@@H](C)[C@@H]3CCCN3C)c21 [I-21] | 45% | 22 nM | 9 nM | 8 nM | 5 nM | 21 nM |
| C[C@H](Oc1nc(-c2onc3c2CCC[C@@]32CCCc3sc(N)c(C#N)c32)nc2c1n(C)c(=O)n2[C@@H]1CCOC1)[C@@H]1C[C@@H](F)CN1C [I-22] | 56% | 14 nM | 43 nM | 10 nM | 4 nM | 22 nM |

Source: patent publication US20250019385A1, “SPIROCYCLIC ANNULATED 2-AMINO-3-CYANO THIOPHENES AND DERIVATIVES FOR THE TREATMENT OF CANCER” (Boehringer Ingelheim International GmbH, priority 2023, published 2025)
